Measurements as given in patent US8796250B2, “Diaryl ureas for diseases mediated by PDGFR” (Bayer Healthcare LLC, priority 2003, dated 2014).

Test system: restenosis following angioplasty
Assay: not given
Details: G. Bilder et al. Circulation 1999; cited from earlier work

SMILES	effect on restenosis following angioplasty
COc1cc2ncc(-c3ccsc3)nc2cc1OC.Cl [RPR101511A]	prevented angiographically defined restenosis following angioplasty

Target: T1, PDGFR-beta phosphorylation (Tyr-857) in Aortic SMC stimulated with PDGF BB (Homo sapiens, UniProt P09619)
T1 construct: endogenous in cells; host or cells: Aortic SMC (AoSMC), passages P3-P6
Assay: pPDGFR-Beta Sandwich ELISA in AoSMC Cells
Format: cell-based
Details: 1 hr compound, 10 ng/mL PDGF BB for 7 minutes, read-out: IC50 in bioassay of PDGFR inhibition in cells
Protocol: 100K P3-P6 Aortic SMC were plated in each well of 12-well cluster in 1000 uL volume/well of SGM-2 using standard cell culture techniques. Next day, cells were rinsed with 1000 uL D-PBS (Gibco) once, then serum starved in 500 uL SBM (smooth muscle cell basal media) with 0.1% BSA (Sigma, Cat A9576) overnight. Compounds were diluted at a dose range from (10 uM to 1 nM in 10-fold dilution steps in DMSO. Final DMSO concentration 0.1%). Remove old media by inversion into the sink quickly then add 100 ul of each dilution to corresponding well of cells for 1 hr at 37° C. Cells were then stimulated with 10 ng/mL PDGF BB ligand for 7 minutes at 37° C. The media is decanted and 150 uL of isotonic lysis buffer with protease inhibitor tablet (Complete; EDTA-free) and 0.2 mM Na vanadate is added. Cells are lysed for 15 min at 4° C. on shaker in cold room. […] Next day, beads are rinsed in 50-volumes of PBS three times and boiled in 1×LDS sample buffer (Invitrogen) for 5 minutes. Samples were run on 3-8% gradient Tris-Acetate gels (Invitrogen) and transferred onto Nitrocellulose. […] After three washes in TBS-T, membranes were incubated in Goat anti-rabbit HRP IgG (Amersham, 1:25000 dilution) for 1 hr. Three more washes followed before addition of ECL substrate. Membranes were exposed to Hyperfilm-ECL.

T1 sequence (P09619 33-1106): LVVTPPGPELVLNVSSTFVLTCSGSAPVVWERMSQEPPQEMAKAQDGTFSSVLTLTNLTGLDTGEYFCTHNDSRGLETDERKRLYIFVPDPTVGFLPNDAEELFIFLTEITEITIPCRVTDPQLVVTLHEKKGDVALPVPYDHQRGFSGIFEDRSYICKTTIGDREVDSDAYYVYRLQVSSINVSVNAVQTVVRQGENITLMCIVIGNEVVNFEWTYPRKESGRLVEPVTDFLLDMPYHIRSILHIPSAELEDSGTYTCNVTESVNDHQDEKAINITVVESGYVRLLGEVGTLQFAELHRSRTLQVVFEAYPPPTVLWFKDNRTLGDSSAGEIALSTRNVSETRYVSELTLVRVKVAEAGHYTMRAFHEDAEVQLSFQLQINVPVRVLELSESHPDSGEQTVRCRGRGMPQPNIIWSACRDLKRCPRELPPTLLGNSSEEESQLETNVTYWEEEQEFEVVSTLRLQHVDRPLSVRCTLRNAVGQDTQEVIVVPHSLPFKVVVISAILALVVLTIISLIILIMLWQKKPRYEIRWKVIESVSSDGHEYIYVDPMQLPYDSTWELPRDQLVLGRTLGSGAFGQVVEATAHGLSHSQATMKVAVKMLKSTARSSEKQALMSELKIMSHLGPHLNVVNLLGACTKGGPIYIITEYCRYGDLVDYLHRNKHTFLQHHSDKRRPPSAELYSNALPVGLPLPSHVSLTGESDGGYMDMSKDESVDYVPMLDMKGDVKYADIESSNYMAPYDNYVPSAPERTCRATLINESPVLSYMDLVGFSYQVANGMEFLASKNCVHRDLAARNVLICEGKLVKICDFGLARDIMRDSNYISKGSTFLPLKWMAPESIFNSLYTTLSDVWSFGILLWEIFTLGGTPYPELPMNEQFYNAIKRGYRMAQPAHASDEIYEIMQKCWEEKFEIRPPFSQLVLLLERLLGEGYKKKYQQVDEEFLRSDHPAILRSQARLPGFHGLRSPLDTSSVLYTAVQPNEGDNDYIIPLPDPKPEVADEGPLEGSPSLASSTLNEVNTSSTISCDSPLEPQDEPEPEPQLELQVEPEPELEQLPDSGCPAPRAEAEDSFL

IC50 [µM]	SMILES
< 10	CNC(=O)c1cc(Oc2ccc(NC(=O)Nc3ccc(Cl)c(C(F)(F)F)c3)c(Cl)c2)ccn1 [N-(4-chloro-3-(trifluoromethyl)phenyl)-N′-(4-(2-(N-methylcarbamoyl)-4-pyridyloxy)-2-chlorophenyl) urea]

Test system: neointimal formation
Assay: not given
Details: rat model; M. Karck et al. 2002; cited from earlier work

SMILES	effect on neointimal formation in aortic allograft vasculopathy
Cc1cc2ncc(-c3ccccc3)nc2cc1C [AG-1295]	reduce neointimal formation

Target: T2, mouse PDGFR (PDGFR beta) (Mus musculus, UniProt P05622)
T2 construct: made in house
Assay: Murine PDGFR FRET Biochemical Assay
Details: 1 nM mouse PDGFR, 20 μM ATP, TR-FRET; read-out: IC50 in biochemical assay (inhibition of PDGFR)
Description: Reaction is initiated upon addition of enzyme.

T2 sequence (P05622 32-1098): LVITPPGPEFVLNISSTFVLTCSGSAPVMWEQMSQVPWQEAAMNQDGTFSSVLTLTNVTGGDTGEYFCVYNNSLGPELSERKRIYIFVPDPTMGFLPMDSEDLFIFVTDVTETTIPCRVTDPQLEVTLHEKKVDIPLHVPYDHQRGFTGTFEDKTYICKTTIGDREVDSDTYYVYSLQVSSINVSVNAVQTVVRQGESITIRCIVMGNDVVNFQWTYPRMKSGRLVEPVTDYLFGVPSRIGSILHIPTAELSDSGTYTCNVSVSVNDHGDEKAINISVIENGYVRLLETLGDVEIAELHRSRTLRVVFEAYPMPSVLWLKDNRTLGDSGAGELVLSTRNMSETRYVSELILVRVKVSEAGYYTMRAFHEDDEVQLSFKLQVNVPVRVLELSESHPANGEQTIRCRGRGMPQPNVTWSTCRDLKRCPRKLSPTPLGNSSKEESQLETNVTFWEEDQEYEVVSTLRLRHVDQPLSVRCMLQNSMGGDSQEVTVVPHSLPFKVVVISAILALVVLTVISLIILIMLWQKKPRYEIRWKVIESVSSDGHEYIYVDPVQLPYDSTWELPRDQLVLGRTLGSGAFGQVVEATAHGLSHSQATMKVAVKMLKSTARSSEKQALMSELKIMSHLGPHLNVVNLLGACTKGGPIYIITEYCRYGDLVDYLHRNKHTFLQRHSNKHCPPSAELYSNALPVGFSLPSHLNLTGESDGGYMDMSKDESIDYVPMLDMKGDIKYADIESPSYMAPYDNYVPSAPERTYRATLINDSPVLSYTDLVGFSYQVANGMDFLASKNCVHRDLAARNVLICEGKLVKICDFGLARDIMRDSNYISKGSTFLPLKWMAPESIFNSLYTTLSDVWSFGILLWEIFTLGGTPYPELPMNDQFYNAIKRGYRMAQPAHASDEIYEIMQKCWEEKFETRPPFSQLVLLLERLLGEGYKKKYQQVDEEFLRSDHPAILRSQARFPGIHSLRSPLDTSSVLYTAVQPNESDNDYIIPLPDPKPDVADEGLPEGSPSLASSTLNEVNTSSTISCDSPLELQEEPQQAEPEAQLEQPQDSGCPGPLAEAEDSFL

SMILES	IC50 [µM]
CNC(=O)c1cc(Oc2ccc(NC(=O)Nc3ccc(Br)c(C(F)(F)F)c3)c(F)c2)ccn1 [N-(4-bromo-3-(trifluoromethyl)phenyl)-N′-(4-(2-(N-methylcarbamoyl)-4-pyridyloxy)-2-fluorophenyl) urea]	< 10
NC(=O)c1cc(Oc2ccc(NC(=O)Nc3ccc(Cl)c(C(F)(F)F)c3)cc2)cc[n+]1[O-] [N-(4-chloro-3-(trifluoromethyl)phenyl)-N′-(4-(1-hydroxy-2-carbamoyl-4-pyridyloxy)phenyl) urea]	< 10
N#Cc1cc(Oc2ccc(NC(=O)Nc3ccc4c(c3)C(F)(F)OC(F)(F)O4)c(F)c2)ccn1 [N-(6-(2,2,4,4-tetrafluoro-4H-benzo[1,3]dioxinyl))-N′-(4-(2-cyano-4-pyridyloxy)-2-fluorophenyl) urea]	< 10
N#Cc1cc(Oc2ccc(NC(=O)Nc3ccc4c(c3)C(F)(F)OC(F)(F)O4)cc2)ccn1 [N-(6-(2,2,4,4-tetrafluoro-4H-benzo[1,3]dioxinyl))-N′-(4-(2-cyano-4-pyridyloxy)phenyl) urea]	< 10
NC(=O)c1cc(Oc2ccc(NC(=O)Nc3ccc(Cl)c(C(F)(F)F)c3)cc2)ccn1 [N-(4-chloro-3-(trifluoromethyl)phenyl)-N′-(4-(2-carbamoyl-4-pyridyloxy)phenyl) urea]	< 10

Now from value to molecule:

IC50 [µM]	SMILES
< 10	CNC(=O)c1cc(Oc2ccc(NC(=O)Nc3ccc(Br)c(C(F)(F)F)c3)c(Cl)c2)ccn1 [N-(4-bromo-3-(trifluoromethyl)phenyl)-N′-(4-(2-(N-methylcarbamoyl)-4-pyridyloxy)-2-chlorophenyl) urea]
< 10	CNC(=O)c1cc(Oc2ccc(NC(=O)Nc3ccc(F)c(C(F)(F)F)c3)c(F)c2)ccn1 [N-(4-fluoro-3-(trifluoromethyl)phenyl)-N′-(4-(2-(N-methylcarbamoyl)-4-pyridyloxy)-2-fluorophenyl) urea]
< 10	CNC(=O)c1cc(Oc2ccc(NC(=O)Nc3ccc(Cl)c(C(F)(F)F)c3)cc2)ccn1 [N-(4-chloro-3-(trifluoromethyl)phenyl)-N′-(4-(2-(N-methylcarbamoyl)-4-pyridyloxy)phenyl) urea]
< 10	CNC(=O)c1cc(Oc2ccc(NC(=O)Nc3ccc(Cl)c(C(F)(F)F)c3)cc2)cc[n+]1[O-] [N-(4-chloro-3-(trifluoromethyl)phenyl)-N′-(4-(1-hydroxy-2-(N-methylcarbamoyl)-4-pyridyloxy)phenyl) urea]
< 10	CNC(=O)c1cc(Oc2ccc(NC(=O)Nc3ccc(Br)c(C(F)(F)F)c3)cc2)ccn1 [N-(4-bromo-3-(trifluoromethyl)phenyl)-N′-(4-(2-(N-methylcarbamoyl)-4-pyridyloxy)phenyl) urea]
< 10	CNC(=O)c1cc(Oc2ccc(NC(=O)Nc3ccc(Cl)c(C(F)(F)F)c3)c(Cl)c2)ccn1 [N-(4-chloro-3-(trifluoromethyl)phenyl)-N′-(4-(2-(N-methylcarbamoyl)-4-pyridyloxy)-2-chlorophenyl) urea]
